Data taken from ChEMBL document CHEMBL3885861, “Open TG-GATES”.

Species: Rattus norvegicus
Assay: Open TG-GATES - Regimen: Daily Repeat
Assay type: toxicity, organism-based, Sprague-Dawley
Design: regimen Daily Repeat, gender Male, age 6 weeks
Conditions: in vivo, po, 0 mg/kg, route gavage, dose level Control; for APTT / Bas / Eos / Fbg / Hb / Ht / Lym / MCH / MCHC / MCV / Mono / Neu / PT / Plat / RBC / Ret / WBC: tissue Blood; for KIDNEY_L / KIDNEY_R / KIDNEY_TOTAL: tissue Kidney; for LIVER: tissue Liver; for A/G / ALP / ALT / AST / BUN / CRE / Ca / Cl / DBIL / GLC / IP / K / LDH / Na / PL / RALB / TBIL / TC / TG / TP / gamma-GTP: tissue Plasma

## C=CCO [ALLYL ALCOHOL]
72 h, time 3 day
  TERMINAL_BW: 237.2 g
  APTT: 19.1 s
  Bas: 0%
  Eos: 1%
  Fbg: 221.6 mg/dL
  Hb: 13.4 g/dL
  Ht: 39.6%
  Lym: 79.4%
  MCH: 21 pg
  MCHC: 33.8%
  MCV: 62.1 fL
  Mono: 2.8%
  Neu: 16.6%
  PT: 11.7 s
  Plat: 133.7 x10_4/uL
  RBC: 638 x10_4/ul
  Ret: 5.7%
  WBC: 129.8 x10_2/uL
  KIDNEY_L: 1 g
  KIDNEY_R: 1 g
  KIDNEY_TOTAL: 2 g
  LIVER: 11.1 g
  A/G: 1.6
  ALP: 952.4 IU/L
  ALT: 38 IU/L
  AST: 65.8 IU/L
  BUN: 16.2 mg/dL
  CRE: 0.4 mg/dL
  Ca: 10.7 mg/dL
  Cl: 103.4 meq/L
  DBIL: 0.088 mg/dL
  GLC: 225.8 mg/dL
  IP: 6.1 mg/dL
  K: 4 meq/L
  LDH: 245.4 IU/L
  Na: 140.8 meq/L
  PL: 148.2 mg/dL
  RALB: 3.4 g/dL
  TBIL: 0.1 mg/dL
  TC: 77.4 mg/dL
  TG: 110.2 mg/dL
  TP: 5.4 g/dL
  gamma-GTP: 0.8 IU/L
[…], time 7 day
  TERMINAL_BW: 272.9 g
  APTT: 20 s
  Bas: 0%
  Eos: 1%
  Fbg: 227.6 mg/dL
  Hb: 13.3 g/dL
  Ht: 38.8%
  Lym: 79.4%
  MCH: 20.9 pg
  MCHC: 34.4%
  MCV: 60.6 fL
  Mono: 3%
  Neu: 16.2%
  PT: 11.9 s
  Plat: 136 x10_4/uL
  RBC: 640.4 x10_4/ul
  Ret: 5%
  WBC: 119.1 x10_2/uL
  KIDNEY_L: 1.1 g
  KIDNEY_R: 1.1 g
  KIDNEY_TOTAL: 2.2 g
  LIVER: 13.1 g
  A/G: 1.5
  ALP: 889.2 IU/L
  ALT: 34 IU/L
  AST: 60.8 IU/L
  BUN: 16.6 mg/dL
  CRE: 0.4 mg/dL
  Ca: 10.9 mg/dL
  Cl: 102 meq/L
  DBIL: 0.098 mg/dL
  GLC: 219.6 mg/dL
  IP: 6.9 mg/dL
  K: 3.9 meq/L
  LDH: 180.4 IU/L
  Na: 140.6 meq/L
  PL: 146 mg/dL
  RALB: 3.4 g/dL
  TBIL: 0.2 mg/dL
  TC: 74 mg/dL
  TG: 124.4 mg/dL
  TP: 5.6 g/dL
  gamma-GTP: 0.8 IU/L
[…], time 14 day
  TERMINAL_BW: 319.8 g
  APTT: 19.8 s
  Bas: 0%
  Eos: 1%
  Fbg: 229 mg/dL
  Hb: 14.2 g/dL
  Ht: 41%
  Lym: 78.2%
  MCH: 20.2 pg
  MCHC: 34.6%
  MCV: 58.5 fL
  Mono: 2.8%
  Neu: 17.6%
  PT: 12 s
  Plat: 126.7 x10_4/uL
  RBC: 701.8 x10_4/ul
  Ret: 4.1%
  WBC: 144 x10_2/uL
  KIDNEY_L: 1.2 g
  KIDNEY_R: 1.2 g
  KIDNEY_TOTAL: 2.4 g
  LIVER: 14.1 g
  A/G: 1.4
  ALP: 766.2 IU/L
  ALT: 34.2 IU/L
  AST: 61.2 IU/L
  BUN: 14.8 mg/dL
  CRE: 0.4 mg/dL
  Ca: 10.5 mg/dL
  Cl: 101.4 meq/L
  DBIL: 0.072 mg/dL
  GLC: 234 mg/dL
  IP: 6.9 mg/dL
  K: 3.7 meq/L
  LDH: 223.2 IU/L
  Na: 140.2 meq/L
  PL: 141.2 mg/dL
  RALB: 3.4 g/dL
  TBIL: 0.1 mg/dL
  TC: 68.8 mg/dL
  TG: 101 mg/dL
  TP: 5.8 g/dL
  gamma-GTP: 1.2 IU/L
[…], time 28 day
  TERMINAL_BW: 385.1 g
  APTT: 20.9 s
  Bas: 0%
  Eos: 1%
  Fbg: 220.6 mg/dL
  Hb: 15.7 g/dL
  Ht: 45.2%
  Lym: 81.8%
  MCH: 19.6 pg
  MCHC: 34.7%
  MCV: 56.5 fL
  Mono: 2.4%
  Neu: 14.4%
  PT: 11.8 s
  Plat: 111.6 x10_4/uL
  RBC: 801.6 x10_4/ul
  Ret: 2.6%
  WBC: 94.8 x10_2/uL
  KIDNEY_L: 1.3 g
  KIDNEY_R: 1.3 g
  KIDNEY_TOTAL: 2.6 g
  LIVER: 16 g
  A/G: 1.3
  ALP: 588.4 IU/L
  ALT: 33.6 IU/L
  AST: 59.2 IU/L
  BUN: 15.4 mg/dL
  CRE: 0.5 mg/dL
  Ca: 10.5 mg/dL
  Cl: 101.8 meq/L
  DBIL: 0.068 mg/dL
  GLC: 222.2 mg/dL
  IP: 6.1 mg/dL
  K: 3.4 meq/L
  LDH: 166.6 IU/L
  Na: 140.6 meq/L
  PL: 141.8 mg/dL
  RALB: 3.5 g/dL
  TBIL: 0.1 mg/dL
  TC: 71.2 mg/dL
  TG: 100.2 mg/dL
  TP: 6.2 g/dL
  gamma-GTP: 1 IU/L
